According to the kinase profiling compilation of Christmann-Franck et al. (2016):

What was measured:
Assay in all cases: radiometric filter-binding kinase assay
MKNK2 (human) = MKNK2 (human) (UniProt Q9HBH9)
PIM2 (human) = PIM2 (human) (UniProt Q9P1W9)
MAP2K6 (human) = MAP2K6 (human) (UniProt P52564)
MAPKAPK5 (human) = MAPKAPK5 (human) (UniProt Q8IW41)
[1] = system: AKT1 (human), P31749 [S473D]
PLK1 (human) = PLK1 (human) (UniProt P53350)
RPS6KA1 KD1 KD2 (human) = RPS6KA1 KD1 KD2 (human) (UniProt Q15418)
MAP3K11 (human) = MAP3K11 (human) (UniProt Q16584)
MAPK8 (human) = MAPK8 (human) (UniProt P45983)
[2] = system: SGK1 (human), O00141 [S422D]
PAK4 (human) = PAK4 (human) (UniProt O96013)
CLK2 (human) = CLK2 (human) (UniProt P49760)
TBK1 (human) = TBK1 (human) (UniProt Q9UHD2)
IKBKB (human) = IKBKB (human) (UniProt O14920)
PIM3 (human) = PIM3 (human) (UniProt Q86V86)
MAPK3 (human) = MAPK3 (human) (UniProt P27361)
STK3 (human) = STK3 (human) (UniProt Q13188)
ROCK2 (rat) = settings: accession and sequence are those of the human protein
DYRK1A (human) = DYRK1A (human) (UniProt Q13627)
IKBKE (human) = IKBKE (human) (UniProt Q14164)
MAPK14 (human) = MAPK14 (human) (UniProt Q16539)
NTRK1 (human) = NTRK1 (human) (UniProt P04629)
RPS6KA3 KD1 KD2 (human) = RPS6KA3 KD1 KD2 (human) (UniProt P51812)
DYRK3 (human) = DYRK3 (human) (UniProt O43781)
EPHB3 (human) = EPHB3 (human) (UniProt P54753)
MAPKAPK3 (human) = MAPKAPK3 (human) (UniProt Q16644)
CSNK2A1 (human) = CSNK2A1 (human) (UniProt P68400)
MAPK12 (human) = MAPK12 (human) (UniProt P53778)
MAP3K7 TAB1 (human) = MAP3K7 TAB1 (human) (UniProt Q15750+O43318)
IRAK4 (human) = IRAK4 (human) (UniProt Q9NWZ3)
[3] = system: RPS6KB1 (human), P23443 [T412E]
DAPK1 (human) = DAPK1 (human) (UniProt P53355)
PIM1 (human) = PIM1 (human) (UniProt P11309)
BRSK2 (human) = BRSK2 (human) (UniProt Q8IWQ3)
MAPK11 (human) = MAPK11 (human) (UniProt Q15759)

Sequence of IRAK4 (human) (Q9NWZ3 whole entry, looked up): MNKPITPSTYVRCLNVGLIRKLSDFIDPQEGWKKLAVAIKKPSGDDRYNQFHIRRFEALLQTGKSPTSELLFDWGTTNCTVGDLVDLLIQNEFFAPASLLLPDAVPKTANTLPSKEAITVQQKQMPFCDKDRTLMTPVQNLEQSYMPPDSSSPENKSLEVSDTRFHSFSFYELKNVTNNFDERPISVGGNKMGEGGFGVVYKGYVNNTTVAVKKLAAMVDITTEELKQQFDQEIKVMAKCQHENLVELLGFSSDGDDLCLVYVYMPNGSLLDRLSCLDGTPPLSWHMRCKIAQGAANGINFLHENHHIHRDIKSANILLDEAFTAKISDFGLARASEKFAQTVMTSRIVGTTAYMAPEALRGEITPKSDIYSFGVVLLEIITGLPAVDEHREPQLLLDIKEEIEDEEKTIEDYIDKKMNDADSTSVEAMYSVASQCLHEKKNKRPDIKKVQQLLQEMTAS
Sequence of RPS6KA3 KD1 KD2 (human) (P51812 whole entry, looked up): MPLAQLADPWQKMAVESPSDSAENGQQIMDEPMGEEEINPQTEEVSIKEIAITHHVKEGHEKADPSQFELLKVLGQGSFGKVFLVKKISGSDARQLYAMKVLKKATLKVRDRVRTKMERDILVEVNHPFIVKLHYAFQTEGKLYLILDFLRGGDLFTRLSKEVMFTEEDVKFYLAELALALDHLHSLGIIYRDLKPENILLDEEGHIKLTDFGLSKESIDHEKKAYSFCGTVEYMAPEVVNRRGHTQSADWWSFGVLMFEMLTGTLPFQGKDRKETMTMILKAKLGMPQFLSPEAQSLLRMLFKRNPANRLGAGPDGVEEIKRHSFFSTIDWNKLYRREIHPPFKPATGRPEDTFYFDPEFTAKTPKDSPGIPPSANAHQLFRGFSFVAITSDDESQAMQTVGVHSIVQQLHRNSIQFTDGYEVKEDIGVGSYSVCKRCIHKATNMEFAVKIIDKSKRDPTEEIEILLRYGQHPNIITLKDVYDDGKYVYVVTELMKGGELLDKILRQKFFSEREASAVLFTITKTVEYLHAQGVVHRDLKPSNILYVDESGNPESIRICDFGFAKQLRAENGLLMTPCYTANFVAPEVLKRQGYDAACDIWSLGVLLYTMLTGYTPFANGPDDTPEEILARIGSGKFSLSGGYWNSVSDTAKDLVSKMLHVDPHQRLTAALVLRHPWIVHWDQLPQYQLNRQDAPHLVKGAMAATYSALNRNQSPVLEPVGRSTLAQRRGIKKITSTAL
Sequence of MKNK2 (human) (Q9HBH9 whole entry, looked up): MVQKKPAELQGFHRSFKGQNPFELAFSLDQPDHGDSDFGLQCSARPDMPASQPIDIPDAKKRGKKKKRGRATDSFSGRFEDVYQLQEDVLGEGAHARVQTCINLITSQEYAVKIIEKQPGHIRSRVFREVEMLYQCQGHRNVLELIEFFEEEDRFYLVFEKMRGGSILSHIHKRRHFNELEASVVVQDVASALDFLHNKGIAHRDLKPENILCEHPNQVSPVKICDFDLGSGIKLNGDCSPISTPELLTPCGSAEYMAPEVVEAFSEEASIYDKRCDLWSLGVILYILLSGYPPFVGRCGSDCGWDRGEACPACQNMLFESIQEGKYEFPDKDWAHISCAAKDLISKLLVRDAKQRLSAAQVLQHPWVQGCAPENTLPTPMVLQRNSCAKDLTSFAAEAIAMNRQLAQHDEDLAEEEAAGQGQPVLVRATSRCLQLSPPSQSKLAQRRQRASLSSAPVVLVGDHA
Sequence of IKBKE (human) (Q14164 whole entry, looked up): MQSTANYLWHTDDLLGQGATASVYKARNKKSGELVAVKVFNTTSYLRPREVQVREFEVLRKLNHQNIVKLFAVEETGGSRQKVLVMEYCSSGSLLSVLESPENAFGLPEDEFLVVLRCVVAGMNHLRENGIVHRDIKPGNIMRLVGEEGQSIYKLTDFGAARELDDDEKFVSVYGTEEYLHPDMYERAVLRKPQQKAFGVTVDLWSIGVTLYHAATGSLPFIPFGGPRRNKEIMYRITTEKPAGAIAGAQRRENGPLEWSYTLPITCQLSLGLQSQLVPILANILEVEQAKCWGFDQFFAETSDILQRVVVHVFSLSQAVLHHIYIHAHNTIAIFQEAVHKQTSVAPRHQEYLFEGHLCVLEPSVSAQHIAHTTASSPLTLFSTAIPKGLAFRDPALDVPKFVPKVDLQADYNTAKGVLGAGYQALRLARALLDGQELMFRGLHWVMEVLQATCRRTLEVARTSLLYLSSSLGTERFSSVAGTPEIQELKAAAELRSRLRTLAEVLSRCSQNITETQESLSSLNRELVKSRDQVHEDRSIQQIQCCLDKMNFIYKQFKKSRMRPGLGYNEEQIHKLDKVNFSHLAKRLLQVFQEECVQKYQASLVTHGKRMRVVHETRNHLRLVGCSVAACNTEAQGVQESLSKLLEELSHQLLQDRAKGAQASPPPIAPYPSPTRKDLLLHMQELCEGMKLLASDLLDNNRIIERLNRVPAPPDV
Sequence of MAPKAPK3 (human) (Q16644 whole entry, looked up): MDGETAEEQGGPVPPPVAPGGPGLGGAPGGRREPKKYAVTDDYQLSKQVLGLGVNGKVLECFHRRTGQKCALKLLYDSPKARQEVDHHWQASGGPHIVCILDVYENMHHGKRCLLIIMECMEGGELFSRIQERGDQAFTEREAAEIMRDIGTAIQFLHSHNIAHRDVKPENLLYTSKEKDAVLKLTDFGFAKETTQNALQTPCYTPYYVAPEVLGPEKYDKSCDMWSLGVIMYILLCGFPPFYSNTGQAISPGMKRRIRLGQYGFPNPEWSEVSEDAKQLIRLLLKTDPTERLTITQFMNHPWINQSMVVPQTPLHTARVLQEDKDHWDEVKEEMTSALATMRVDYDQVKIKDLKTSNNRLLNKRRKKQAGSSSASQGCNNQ
Sequence of MAPK14 (human) (Q16539 whole entry, looked up): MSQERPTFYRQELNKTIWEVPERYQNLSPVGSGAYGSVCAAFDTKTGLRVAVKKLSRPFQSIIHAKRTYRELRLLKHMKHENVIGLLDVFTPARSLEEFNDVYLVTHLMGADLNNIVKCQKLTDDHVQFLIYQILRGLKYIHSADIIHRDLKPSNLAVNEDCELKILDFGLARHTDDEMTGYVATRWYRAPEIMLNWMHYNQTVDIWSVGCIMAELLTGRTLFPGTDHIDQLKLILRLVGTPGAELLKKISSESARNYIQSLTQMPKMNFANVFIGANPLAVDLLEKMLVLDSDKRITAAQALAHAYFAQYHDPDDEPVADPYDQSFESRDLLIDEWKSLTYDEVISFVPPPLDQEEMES
Sequence of MAPK12 (human) (P53778 whole entry, looked up): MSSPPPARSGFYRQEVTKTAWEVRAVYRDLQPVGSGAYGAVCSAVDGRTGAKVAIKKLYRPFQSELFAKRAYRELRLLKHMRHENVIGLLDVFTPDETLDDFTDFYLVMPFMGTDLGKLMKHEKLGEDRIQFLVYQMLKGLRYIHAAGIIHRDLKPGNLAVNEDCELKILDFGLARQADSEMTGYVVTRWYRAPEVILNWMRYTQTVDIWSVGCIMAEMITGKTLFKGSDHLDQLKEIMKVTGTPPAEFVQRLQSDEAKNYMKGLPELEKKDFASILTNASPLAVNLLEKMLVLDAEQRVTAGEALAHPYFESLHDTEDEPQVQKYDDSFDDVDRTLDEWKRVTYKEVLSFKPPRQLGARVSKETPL
Sequence of PIM2 (human) (Q9P1W9 whole entry, looked up): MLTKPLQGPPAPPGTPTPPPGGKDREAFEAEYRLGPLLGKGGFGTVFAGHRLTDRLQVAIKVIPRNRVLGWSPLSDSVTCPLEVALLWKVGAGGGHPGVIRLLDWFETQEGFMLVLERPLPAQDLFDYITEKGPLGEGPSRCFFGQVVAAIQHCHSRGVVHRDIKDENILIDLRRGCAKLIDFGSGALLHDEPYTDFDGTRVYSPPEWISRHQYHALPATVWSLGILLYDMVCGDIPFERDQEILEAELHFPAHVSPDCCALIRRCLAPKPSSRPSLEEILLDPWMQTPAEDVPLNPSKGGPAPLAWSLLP
Sequence of MAP3K7 TAB1 (human) (O43318 whole entry, looked up): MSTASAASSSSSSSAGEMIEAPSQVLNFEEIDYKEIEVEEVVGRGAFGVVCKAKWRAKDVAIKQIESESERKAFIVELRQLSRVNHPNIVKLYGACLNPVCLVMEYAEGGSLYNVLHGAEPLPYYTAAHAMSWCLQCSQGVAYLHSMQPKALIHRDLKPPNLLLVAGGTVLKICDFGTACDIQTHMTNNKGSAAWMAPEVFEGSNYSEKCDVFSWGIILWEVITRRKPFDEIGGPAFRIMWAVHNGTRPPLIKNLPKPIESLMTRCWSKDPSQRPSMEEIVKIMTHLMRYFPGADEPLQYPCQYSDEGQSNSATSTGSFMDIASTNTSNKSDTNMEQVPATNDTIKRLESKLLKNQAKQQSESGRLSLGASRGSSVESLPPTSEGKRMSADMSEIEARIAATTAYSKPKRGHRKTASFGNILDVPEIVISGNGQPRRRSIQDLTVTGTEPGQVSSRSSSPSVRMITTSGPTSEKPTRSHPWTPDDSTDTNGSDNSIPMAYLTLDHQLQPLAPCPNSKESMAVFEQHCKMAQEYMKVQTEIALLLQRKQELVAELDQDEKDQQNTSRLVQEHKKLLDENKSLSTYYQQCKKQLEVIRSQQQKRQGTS
Sequence of MAP3K7 TAB1 (human) (Q15750 whole entry, looked up): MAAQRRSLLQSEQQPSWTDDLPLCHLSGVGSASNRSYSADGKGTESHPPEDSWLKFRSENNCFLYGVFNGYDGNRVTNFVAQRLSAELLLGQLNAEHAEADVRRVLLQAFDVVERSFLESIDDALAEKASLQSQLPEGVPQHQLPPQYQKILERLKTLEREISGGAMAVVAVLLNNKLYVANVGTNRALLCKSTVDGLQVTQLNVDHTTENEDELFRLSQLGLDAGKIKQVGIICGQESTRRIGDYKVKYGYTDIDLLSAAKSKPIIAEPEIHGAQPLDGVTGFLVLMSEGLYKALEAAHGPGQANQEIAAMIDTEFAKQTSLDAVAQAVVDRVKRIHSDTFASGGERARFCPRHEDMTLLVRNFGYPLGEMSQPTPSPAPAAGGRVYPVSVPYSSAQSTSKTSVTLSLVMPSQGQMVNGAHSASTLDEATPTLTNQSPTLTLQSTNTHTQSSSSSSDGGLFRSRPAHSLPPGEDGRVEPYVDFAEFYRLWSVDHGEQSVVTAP

A residual activity (MKNK2 (human); compound 0.01 µM) of 93%, a residual activity (MKNK2 (human); compound 0.1 µM) of 12% and a residual activity (MKNK2 (human); compound 1.0 µM) of 10% were found for `CNC(=O)C1[C@H]2O[C@@](C)([C@@H]1N)n1c3ccccc3c3c4c(c5c6ccccc6n2c5c31)C(=O)NC4` (stereo partly drawn) in this work. The residual activity (PIM2 (human); compound 0.01 µM) was 93%, the residual activity (PIM2 (human); compound 0.1 µM) was 30% and the residual activity (PIM2 (human); compound 1.0 µM) was 4%. The residual activity (MAP2K6 (human); compound 0.01 µM) was 10%, the residual activity (MAP2K6 (human); compound 0.1 µM) was 13% and the residual activity (MAP2K6 (human); compound 1.0 µM) was 5%. It also gave a residual activity (MAPKAPK5 (human); compound 0.01 µM) of 81%, a residual activity (MAPKAPK5 (human); compound 0.1 µM) of 15% and a residual activity (MAPKAPK5 (human); compound 1.0 µM) of 2%. For the same compound, the residual activity ([1]; compound 0.01 µM) was 93%, the residual activity ([1]; compound 0.1 µM) was 44% and the residual activity ([1]; compound 1.0 µM) was 5%. The residual activity (PLK1 (human); compound 0.01 µM) was 68%, the residual activity (PLK1 (human); compound 0.1 µM) was 38% and the residual activity (PLK1 (human); compound 1.0 µM) was 22%. For the same compound, the residual activity (RPS6KA1 KD1 KD2 (human); compound 0.01 µM) was 9%, the residual activity (RPS6KA1 KD1 KD2 (human); compound 0.1 µM) was 3% and the residual activity (RPS6KA1 KD1 KD2 (human); compound 1.0 µM) was 1%. The residual activity (MAP3K11 (human); compound 0.01 µM) was 17%, the residual activity (MAP3K11 (human); compound 0.1 µM) was 5% and the residual activity (MAP3K11 (human); compound 1.0 µM) was 3%. For the same compound, the residual activity (MAPK8 (human); compound 0.01 µM) was 91%, the residual activity (MAPK8 (human); compound 0.1 µM) was 4% and the residual activity (MAPK8 (human); compound 1.0 µM) was 1%. The residual activity ([2]; compound 0.01 µM) was 79%, the residual activity ([2]; compound 0.1 µM) was 32% and the residual activity ([2]; compound 1.0 µM) was 10%. The residual activity (PAK4 (human); compound 0.01 µM) was 25%, the residual activity (PAK4 (human); compound 0.1 µM) was 7% and the residual activity (PAK4 (human); compound 1.0 µM) was 7%. For the same compound, the residual activity (CLK2 (human); compound 0.01 µM) was 9%, the residual activity (CLK2 (human); compound 0.1 µM) was -1% and the residual activity (CLK2 (human); compound 1.0 µM) was -1%. For the same compound, the residual activity (TBK1 (human); compound 0.01 µM) was 22%, the residual activity (TBK1 (human); compound 0.1 µM) was 16% and the residual activity (TBK1 (human); compound 1.0 µM) was 12%. The residual activity (IKBKB (human); compound 0.01 µM) was 75%, the residual activity (IKBKB (human); compound 0.1 µM) was 24% and the residual activity (IKBKB (human); compound 1.0 µM) was 6%. For the same compound, the residual activity (PIM3 (human); compound 0.01 µM) was 17%, the residual activity (PIM3 (human); compound 0.1 µM) was 10% and the residual activity (PIM3 (human); compound 1.0 µM) was 10%. It also gave a residual activity (MAPK3 (human); compound 0.1 µM) of 4%, a residual activity (MAPK3 (human); compound 1.0 µM) of 2% and a residual activity (STK3 (human); compound 0.01 µM) of 18%. For the same compound, the residual activity (STK3 (human); compound 0.1 µM) was 16%, the residual activity (STK3 (human); compound 1.0 µM) was 9% and the residual activity (ROCK2 (rat); compound 0.01 µM) was 82%. It also gave a residual activity (ROCK2 (rat); compound 1.0 µM) of 7%, a residual activity (DYRK1A (human); compound 0.01 µM) of 29% and a residual activity (DYRK1A (human); compound 0.1 µM) of 8%. It also gave a residual activity (DYRK1A (human); compound 1.0 µM) of 3%, a residual activity (IKBKE (human); compound 0.01 µM) of 6% and a residual activity (IKBKE (human); compound 0.1 µM) of 1%. The residual activity (IKBKE (human); compound 1.0 µM) was 2%, the residual activity (MAPK14 (human); compound 0.01 µM) was 106% and the residual activity (MAPK14 (human); compound 0.1 µM) was 109%. For the same compound, the residual activity (MAPK14 (human); compound 1.0 µM) was 105%, the residual activity (NTRK1 (human); compound 0.01 µM) was 5% and the residual activity (NTRK1 (human); compound 0.1 µM) was 3%. It also gave a residual activity (NTRK1 (human); compound 1.0 µM) of 2%, a residual activity (RPS6KA3 KD1 KD2 (human); compound 0.01 µM) of 16% and a residual activity (RPS6KA3 KD1 KD2 (human); compound 0.1 µM) of 7%. For the same compound, the residual activity (RPS6KA3 KD1 KD2 (human); compound 1.0 µM) was 6%, the residual activity (DYRK3 (human); compound 0.01 µM) was 24% and the residual activity (DYRK3 (human); compound 0.1 µM) was 4%. It also gave a residual activity (DYRK3 (human); compound 1.0 µM) of 2%, a residual activity (EPHB3 (human); compound 0.01 µM) of 106% and a residual activity (EPHB3 (human); compound 0.1 µM) of 100%. The residual activity (EPHB3 (human); compound 1.0 µM) was 83%, the residual activity (MAPKAPK3 (human); compound 0.01 µM) was 91% and the residual activity (MAPKAPK3 (human); compound 0.1 µM) was 74%. For the same compound, the residual activity (MAPKAPK3 (human); compound 1.0 µM) was 29%, the residual activity (CSNK2A1 (human); compound 0.01 µM) was 106% and the residual activity (CSNK2A1 (human); compound 0.1 µM) was 108%. It also gave a residual activity (CSNK2A1 (human); compound 1.0 µM) of 80%, a residual activity (MAPK12 (human); compound 0.01 µM) of 76% and a residual activity (MAPK12 (human); compound 0.1 µM) of 29%. For the same compound, the residual activity (MAPK12 (human); compound 1.0 µM) was 6%, the residual activity (MAP3K7 TAB1 (human); compound 0.01 µM) was 111% and the residual activity (MAP3K7 TAB1 (human); compound 0.1 µM) was 2%. The residual activity (MAP3K7 TAB1 (human); compound 1.0 µM) was 2%, the residual activity (IRAK4 (human); compound 0.01 µM) was 7% and the residual activity (IRAK4 (human); compound 0.1 µM) was 7%. For the same compound, the residual activity (IRAK4 (human); compound 1.0 µM) was 4%, the residual activity ([3]; compound 0.01 µM) was 37% and the residual activity ([3]; compound 0.1 µM) was 6%. The residual activity ([3]; compound 1.0 µM) was 3%, the residual activity (DAPK1 (human); compound 0.01 µM) was 51% and the residual activity (DAPK1 (human); compound 0.1 µM) was 18%. The residual activity (DAPK1 (human); compound 1.0 µM) was 4%, the residual activity (PIM1 (human); compound 0.01 µM) was 71% and the residual activity (PIM1 (human); compound 0.1 µM) was 16%. The residual activity (PIM1 (human); compound 1.0 µM) was 1%, the residual activity (BRSK2 (human); compound 0.01 µM) was 16% and the residual activity (BRSK2 (human); compound 0.1 µM) was 10%. For the same compound, the residual activity (BRSK2 (human); compound 1.0 µM) was 8%, the residual activity (MAPK11 (human); compound 0.01 µM) was 108% and the residual activity (MAPK11 (human); compound 0.1 µM) was 96%. The residual activity (MAPK11 (human); compound 1.0 µM) was 79%.
